Source: patent US8361758B2, “Microorganism of Corynebacterium genus having resistance to kanamycin and enhanced L-lysine productivity and method of producing L-lysine using the same” (priority 2005, dated 2013)

How the values were obtained:
[1] = tested on: Corynebacterium glutamicum KFCC10881-CJP5103; test: Resistance to kanamycin: growth on minimal agar plate medium containing kanamycin; type: cell-based; details: Kanamycin 5 mg/l, cultured four days, kanamycin-resistant mutant
Method: (§1) Next, an experiment of resistance to kanamycin with respect to the selected mutant resistant to kanamycin, Corynebacterium glutamicum KFCC10881-CJP5103, and the parent bacteria was performed. First, the two microorganisms were cultured in a Luria Bertani (LB) liquid medium for 16 hours, and then the cells were washed using sterile normal saline two times. Then, the washed cells were properly diluted and the resulting product was cultured in a minimal agar plate medium containing kanamycin having a concentration of 5 mg/l for four days to measure productivity of each microorganism. A composition of the minimal agar plate medium is the same as follows: 10 g of glucose, 2 g of (NH4)2SO4, 2 g of urea, 1.0 g of KH2PO4, 3.0 g of K2HPO4, 0.5 g of MgSO4.7H2O, 10 mg of FeSO4.7H2O, 10 mg of MnSO4.7H2O, 100 μg of biotin, 100 lag of thiamine. HCl, 100 μg of CaCl2.2H2O, 80 μg of Na2B4O7.10H2O, 40 μg of (NH4)6MoO27.4H2O, 10 μg of ZnSO4.7 H2O, 300 μg of CuSO4.7 H2O, 10 μg of MnCl2.4H2O, 1 mg of FeCl3.6H2O, 20 g of agar, 0.1 g of L-leucine if necessary, 0.1 g of L-threonine if necessary, 0.1 g of L-methionine if necessary, per 1 L of distilled water (pH 7.0).
(§2) The results of measuring productivity of the mutant and the parent bacteria in a kanamycin-containing medium are shown in Table. 1.

[2] = tested on: Corynebacterium glutamicum KFCC10881; test: as above; type: cell-based; details: Kanamycin 5 mg/l, cultured four days, parent strain
Method: as §1, §2

Question: Which results are given for NC[C@H]1O[C@H](O[C@H]2[C@H](O)[C@@H](O[C@H]3O[C@H](CO)[C@@H](O)[C@H](N)[C@H]3O)[C@H](N)C[C@@H]2N)[C@H](O)[C@@H](O)[C@@H]1O [Kanamycin, kanamycin]?
Answer: Growth of KFCC-10881-CJP5103 in kanamycin-containing medium [1]: +++; Growth of KFCC-10881 in kanamycin-containing medium [2]: −
